≈ marks a conversion by molar mass, not a printed value. Read-outs that look alike come from different tables or passages of the source.

One data set relates to Pseudomonas aeruginosa. The experiment in a line: In-vitro antibacterial test, agar dilution MIC. The data set is classed as cell-based. To be noted: for MIC: Pseudomonas aeruginosa, read-out: In-vitro MIC. On the technique in general: Agar dilution tests growth on a series of plates holding different concentrations.
A further data set relates to Staphylococcus aureus. The experiment in a line: In-vitro antibacterial test, agar dilution MIC. The data set is classed as cell-based. As to conditions: for MIC: Staphylococcus aureus, read-out: In-vitro MIC.
In the next data set the test system is Escherichia coli. The experiment in a line: In-vitro antibacterial test, agar dilution MIC. The class given is cell-based. As to conditions: for MIC: Escherichia coli, read-out: In-vitro MIC.
A further data set deals with Klebsiella pneumoniae. The experiment in a line: In-vitro antibacterial test, agar dilution MIC. The data set is classed as cell-based. To be noted: for MIC: Klebsiella pneumoniae.
For the next data set, the system named is Vibrio cholerae. The experiment in a line: In-vitro antibacterial test, agar dilution MIC. As to conditions: for In-vitro MIC: agar dilution; for MIC: Vibrio cholerae, read-out: In-vitro MIC. The data set is classed as cell-based.
The nature of data set [1]: Solubility test: maximum solubility in water. The class given is physicochemical. As to conditions: thermodynamic from solid. On the procedure:
Three lots of mesylates and three lots of lactates, respectively, were subjected to preliminary tests for maximum solubility in water. At ambient temperature (25° C.), 0.2 g of sample was dissolved in 1 mL of water. To the solution was added 0.1 g of the sample each time until the sample could no longer be dissolved. The amount of sample dissolved was the maximum solubility.

Another data set deals with Enterococcus faecalis. The experiment in a line: In-vitro antibacterial test, agar dilution MIC. The data set is classed as cell-based. To be noted: read-out: In-vitro MIC.
In a further data set the test system is Streptococcus pneumoniae. The experiment in a line: In-vitro antibacterial test, agar dilution MIC. The class given is cell-based. As to conditions: Streptococcus pneumoniae, read-out: In-vitro MIC. On the procedure: (§1) Test method: the agar dilution method was used for the minimum inhibitory concentration (MIC) determination. The antibacterial chemicals were mixed with given amounts of agar in various concentrations and the mixtures were made into solid plates. Each plate had the antibacterial concentration two times higher than the next plate. Bacteria species were then added to the surface of the plates, cultured, and observed for their growth.
(§2) Other bacteria included those isolated from sputum, throat swab or urine of patients with acute bacterial respiratory tract infection or urinary tract infection and identified by the hospitals.
(§3) (S)-6-fluoro-1-methyl-4-oxo-7-(1-piperazinyl)-1H,4H-[1,3]thiazeto[3,2-a]quino line-3-carboxylic acid lactate and other test samples, equivalent to 96 mg of ulifloxacin, were dissolved in sterilized distilled water to make up 50 mL of each solution.

A further data set concerns Enterobacter cloacae. The experiment in a line: In-vitro antibacterial test, agar dilution MIC. The data set is classed as cell-based. As to conditions: read-out: In-vitro MIC.
In data set [2] the test system is Klebsiella pneumoniae, Pseudomonas aeruginosa, Staphylococcus aureus, Escherichia coli, Enterococcus faecalis, Streptococcus pneumoniae, Enterobacter cloacae …. The experiment in a line: In-vitro antibacterial tests, summary over the tested bacteria. The data set is classed as cell-based. As to conditions: for antibacterial activities compared with compounds 7 and 8: against the above four bacteria, concentrations calculated as equivalents to NM394; for antibacterial activity (in words): against the eight tested bacteria. The protocol: as §1, §2, §3

In data set [3] the test system is New Zealand rabbit ear vein and surrounding tissues. The experiment in a line: Vascular irritation tests. The class given is in vivo, New Zealand rabbits. As to conditions: vein injection once a day for 3 days, high and low doses. From the text: Sixteen New Zealand rabbits were divided into 4 groups: a control group and three treatment groups for compounds 4, 5, and 6, respectively; each group had 4 rabbits. The rabbits of the treatment groups were vein-injected on their left ears with high doses of the test samples and on their right ears with low doses of the test samples. The rabbits of the control group were rein-injected on their both left and right ears with sodium chloride solution. The injections continued for 3 days, once a day. Two rabbits from each group were anatomized after 24 hours of each injection.

Another data set has as its system SD rats. As to conditions: for NOAEL (no observed adverse effect level) / targeted organ of toxicity: SD rats; for NOAEL (no observed adverse effect level): 28 days continuous intravenous administration, calculated based on NM394; for targeted organ of toxicity: intravenous; for rats with crystals in renal tubules / rats with kidney protein casts / rats with mild cortical tubular dilatation: after 28 days.

Another data set deals with Sprague-Drwlog rats. To be noted: intravenous injection, four weeks; cited from earlier work.
Another data set has as its system rats. To be noted: rat, in vivo; cited from earlier work.
In the next data set the test system is mice. As to conditions: mouse, in vivo; cited from earlier work.
Setting [4] is: high dose group (60 mg/kg·bw), tissue microscopy.
Where [5] appears, read: maximum solubility in water, ambient temperature (25° C.), average of two tests, preliminary, read-out: Water Solubility.

Experimental for SD rats: The dose without toxic reaction was thereby determined and the long term toxicity to SD rats was tested. One hundred forty SD rats were randomly divided into 7 groups depending on their body weight and sex; each group had 20 rats with 10 males and 10 females. […] The rats were administrated by intravenous injection, once a day for consecutive 4 weeks. The recovery was monitored for 2 weeks after treatment.
Drug preparation: the drugs were dissolved with a saline solution to the desired concentration before administration. Administration: intravenous injection. Delivery period: 28 days continuously. Observation and inspection: Observation and inspection projects, targets and time: including the general state of observation (7), hematologic (16), biochemical blood test (18), urine (10) and pathological examination.
General observation: the appearance of signs, behavior, glands, respiratory and stool, daily observation and timely recording, discovering dead or dying animals, timely anatomical examination, food intake, and body weight once weekly.
Blood tests: abdominal aortic blood for hematology testing, in the 16 testing indicators, leukocyte classification using whole blood smear, Wright stain staining; prothrombin time (PT) with a 0.109 mmol/L of citrate Citrus medica sodium (with blood volume ratio of 1:9) anticoagulant, 3000 r/min centrifugal 10 min, taking with BE Thromotimer plasma coagulation analyzer (Germany) determination; other indicators to EDTA anticoagulant, using SWELAB AC920EO automated hematology analyzer (Sweden).
Biochemical blood tests: blood sampling method same as above, blood serum obtained by 3000 r/min centrifugal 10 min. In the 21 indicators, the Na+, K+, Cl^− were determined using EasyLyte Plus Na/K/Cl analyzer (USA), the other indexes of blood were determined using a Hitachi 7020 automatic biochemical analyzer (Japan) determination.
Urine tests: 16 h urine collection, using [sequence] 100 urine analyzer.
Pathology: after anesthesia, the animal was killed by blood letting of the abdominal aorta. System anatomy and visual observation of changes in various organs were performed; and organ weights were determined. Tissue was fixed in 10% neutral formalin; plates were made by conventional paraffin producers, HE staining, and light microscopy.
Statistical analysis: In the different groups, the body weight, hematology, blood chemistry, urine measurements, organ weights, organ coefficient were calculated for the mean±standard deviation and t-test comparison between groups. Pathological abnormalities according to their incidence and severity were compared between groups.
Text for Vibrio cholerae: The test bacterial strains were the standard quality control test strains of Klebsiella pneumoniae strains (Strains No. CMCC 46114-8), Pseudomonas aeruginosa (Strains No. ATCC 27853), Escherichia coli (Strains No. ATCC25922), and Staphylococcus aureus cocci (Strains No. ATCC25925). Other bacteria included those isolated from sputum, throat swab or urine of patients with acute bacterial respiratory tract infection or urinary tract infection and identified by the hospitals.
HCl levofloxacin injection and NaCl ciprofloxacin lactate injection were diluted with sterilized distilled water to a concentration of 1920 μg/mL.

Consider “(R)-6-fluoro-1-methyl-4-oxo-7-(1-piperazinyl)-1H,4H-[1,3]thiazeto[3,2-a]quinoline-3-carboxylic acid gluconate [Compound 10]”, for which the “In-vitro MIC” value came out at 1 µg/mL in the data set on Pseudomonas aeruginosa (agar dilution); 1 µg/mL in the data set with Staphylococcus aureus (agar dilution); 0.25 µg/mL in the data set on Escherichia coli (agar dilution); 0.5 µg/mL with Klebsiella pneumoniae; 2 µg/mL with Vibrio cholerae.

As for `CS(=O)(=O)O.C[C@H]1Sc2c(C(=O)O)c(=O)c3cc(F)c(N4CCNCC4)cc3n21` [Compound 9, (R)-6-fluoro-1-methyl-4-oxo-7-(1-piperazinyl)-1H,4H-[1,3]thiazeto[3,2-a]quinoline-3-carboxylic acid mesylate], the solubility (commonly the concentration that dissolves in the medium under given conditions) in [1] (25 °C, water) came out at 501 mg/mL. Further, the MIC – broadly, the least concentration at which growth counts as inhibited – stood at 1 µg/mL in the data set on Pseudomonas aeruginosa; 2 µg/mL in the data set on Staphylococcus aureus (agar dilution); 4 µg/mL in the data set on Enterococcus faecalis; 0.125 µg/mL in the data set on Streptococcus pneumoniae; 0.5 µg/mL against Klebsiella pneumoniae; 4 µg/mL in the data set on Enterobacter cloacae (agar dilution). For the same compound, the MIC in the data set on Vibrio cholerae turned out to be 2 µg/mL.

For the compound “(S)-6-fluoro-1-methyl-4-oxo-7-(1-piperazinyl)-1H,4H-[1,3]thiazeto[3,2-a]quinoline-3-carboxylic acid gluconate [Compound 6]”, the “In-vitro MIC” value came out at 0.25 µg/mL in the data set with Pseudomonas aeruginosa (agar dilution); 0.25 µg/mL in the data set with Staphylococcus aureus (agar dilution); 0.01 µg/mL in the data set with Escherichia coli (agar dilution); 0.02 µg/mL in the data set on Klebsiella pneumoniae; 0.02 µg/mL in the data set on Vibrio cholerae. The “antibacterial activities compared with compounds 7 and 8” value in data set [2] is given as “slightly stronger”. Moreover, the “antibacterial activity (in words)” value in data set [2] was “relatively strong antibacterial activity”. In data set [3], the “irritation to ear vein and surrounding tissues” value (shortened to “irritation”) is given as “no irritation”.

`CS(=O)(=O)O.C[C@@H]1Sc2c(C(=O)O)c(=O)c3cc(F)c(N4CCNCC4)cc3n21` [Compound 5, (S)-6-fluoro-1-methyl-4-oxo-7-(1-piperazinyl)-1H,4H-[1,3]thiazeto[3,2-a]quinoline-3-carboxylic acid mesylate]: in data set [1] (25 °C, water), the solubility was 490 mg/mL. The MIC in the data set on Pseudomonas aeruginosa was 0.25 µg/mL; in the data set on Staphylococcus aureus, 0.25 µg/mL; in the data set with Enterococcus faecalis, 0.2 µg/mL; in the data set with Streptococcus pneumoniae (agar dilution), 0.01 µg/mL; in the data set on Klebsiella pneumoniae, 0.02 µg/mL; with Enterobacter cloacae (agar dilution), 0.5 µg/mL. Moreover, the MIC with Vibrio cholerae was found to be 0.02 µg/mL. Further, in data set [2], the “antibacterial activities compared with compounds 7 and 8” value is recorded as “slightly stronger”. The “antibacterial activity (in words)” value in data set [2] is “relatively strong antibacterial activity”. Besides, the “irritation” value in [3] is “no irritation”. For the same compound, the “NOAEL (no observed adverse effect level)” value in the data set with SD rats was 30 mg/kg·bw. Also, the “targeted organ of toxicity” value in the data set with SD rats is reported as “the kidney”. The “rats with crystals in renal tubules” value with SD rats (setting [4]) was “two”. For the same compound, the “rats with kidney protein casts” value with SD rats (setting [4]) is “one”. For the same compound, the “rats with mild cortical tubular dilatation” value with SD rats (setting [4]) was “two”.

In the case of `CC(O)C(=O)O.C[C@H]1Sc2c(C(=O)O)c(=O)c3cc(F)c(N4CCNCC4)cc3n21` [Compound 13, (R)-6-fluoro-1-methyl-4-oxo-7-(1-piperazinyl)-1H,4H-[1,3]thiazeto[3,2-a]quinoline-3-carboxylic acid lactate], in data set [1] (setting [5]), the solubility was 116 mg/mL. For the same compound, the MIC in the data set on Pseudomonas aeruginosa was 1 µg/mL; with Staphylococcus aureus, 1 µg/mL; in the data set on Enterococcus faecalis (agar dilution), 4 µg/mL; in the data set on Streptococcus pneumoniae, 0.125 µg/mL; in the data set with Escherichia coli, 0.25 µg/mL.

As for `CC(O)C(=O)O.C[C@@H]1Sc2c(C(=O)O)c(=O)c3cc(F)c(N4CCNCC4)cc3n21` [Compound 4, (S)-6-fluoro-1-methyl-4-oxo-7-(1-piperazinyl)-1H,4H-[1,3]thiazeto[3,2-a]quinoline-3-carboxylic acid lactate], the solubility in data set [1] (setting [5]) stood at 70 mg/mL. For the same compound, the MIC came out at 0.25 µg/mL in the data set on Pseudomonas aeruginosa; 0.125 µg/mL with Staphylococcus aureus; 0.5 µg/mL in the data set with Enterococcus faecalis (agar dilution); 0.02 µg/mL in the data set with Streptococcus pneumoniae; 0.01 µg/mL in the data set with Escherichia coli; 0.5 µg/mL in the data set with Enterobacter cloacae (agar dilution). Further, the “antibacterial activities compared with compounds 7 and 8” value in data set [2] is reported as “slightly stronger”. Moreover, in [2], the “antibacterial activity (in words)” value was “relatively strong antibacterial activity”. The “irritation” value in data set [3] is “no irritation”. For the same compound, in the data set on SD rats, the “NOAEL (no observed adverse effect level)” value is listed as 30 mg/kg·bw. In the data set on SD rats, the “targeted organ of toxicity” value is listed as “the kidney”. The “rats with crystals in renal tubules” value in the data set on SD rats (setting [4]) is 3. Moreover, the “rats with kidney protein casts” value with SD rats (setting [4]) is on record as “one”. The “rats with mild cortical tubular dilatation” value in the data set on SD rats (setting [4]) is recorded as 3. In the data set with SD rats (setting [4]), the “rats with mild interstitial inflammatory cell infiltration” value came to 1.

Take “(±)-6-fluoro-1-methyl-4-oxo-7-(1-piperazinyl)-1H,4H-[1,3]thiazeto[3,2-a]quinoline-3-carboxylic acid gluconate [Ulifloxaci gluconate (±), reference compound]”: the “In-vitro MIC” value turned out to be 0.5 µg/mL in the data set on Pseudomonas aeruginosa (agar dilution); 0.5 µg/mL in the data set on Staphylococcus aureus (agar dilution); 0.05 µg/mL in the data set on Escherichia coli (agar dilution); 0.2 µg/mL in the data set on Klebsiella pneumoniae; 0.5 µg/mL with Vibrio cholerae.

As to `CC(O)C(=O)O.CC1Sc2c(C(=O)O)c(=O)c3cc(F)c(N4CCNCC4)cc3n21` (racemic) [Ulifloxaci lactate (±), (±)-6-fluoro-1-methyl-4-oxo-7-(1-piperazinyl)-1H,4H-[1,3]thiazeto[3,2-a]quinoline-3-carboxylic acid lactate, reference compound], the solubility in data set [1] (setting [5]) was 106 mg/mL. The MIC stood at 0.25 µg/mL in the data set on Staphylococcus aureus; 2 µg/mL in the data set with Enterococcus faecalis (agar dilution); 0.1 µg/mL with Streptococcus pneumoniae; 0.125 µg/mL with Escherichia coli; 1.25 µg/mL in the data set on Enterobacter cloacae.

For `CC1Sc2c(C(=O)O)c(=O)c3cc(F)c(N4CCNCC4)cc3n21.CS(=O)(=O)O` (racemic) [Ulifloxaci mesylate (±), (±)-6-fluoro-1-methyl-4-oxo-7-(1-piperazinyl)-1H,4H-[1,3]thiazeto[3,2-a]quinoline-3-carboxylic acid mesylate, reference compound], the solubility in data set [1] (25 °C, water) is 340 mg/mL. Also, the MIC in the data set with Staphylococcus aureus (agar dilution) amounted to 0.5 µg/mL; with Enterococcus faecalis, 1.5 µg/mL; in the data set with Streptococcus pneumoniae, 0.088 µg/mL; in the data set with Escherichia coli, 0.063 µg/mL; against Klebsiella pneumoniae it was 0.2 µg/mL; in the data set on Enterobacter cloacae (agar dilution), 1 µg/mL. Further, in the data set on Vibrio cholerae, the MIC turned out to be 0.5 µg/mL.

For `CC1Sc2c(C(=O)O)c(=O)c3cc(F)c(N4CCNCC4)cc3n21` (racemic) [Ulifloxacin, 6-fluoro-1-methyl-4-oxo-7-(1-piperazinyl)-1H,4H-[1,3]thiazeto[3,2-a]quinoline-3-carboxylic acid, reference compound], the MIC in the data set on Pseudomonas aeruginosa (agar dilution) was 0.5 µg/mL (≈ 1.43 µM); with Staphylococcus aureus (agar dilution) it was 0.5 µg/mL (≈ 1.43 µM); in the data set on Streptococcus pneumoniae (agar dilution), 0.031 µg/mL (≈ 0.0887 µM); in the data set with Escherichia coli (agar dilution) it was 0.08 µg/mL (≈ 0.229 µM); with Enterobacter cloacae (agar dilution), 1 µg/mL (≈ 2.86 µM). The “NOAEL (no observed adverse effect level) dose” value in the data set with Sprague-Drwlog rats is listed as 3 mg/kg. For the same compound, the “toxic effects of intravenous injection” value is “convulsions, difficult breathing, injection site redness, swelling, and necrosis” in the data set with rats; “losing weight, testicular atrophy, and visible pulmonary congestion” in the data set with mice.

Values taken from patent publication US20110028444A1, “PHARMACEUTICALLY ACCEPTABLE SALTS OF ANTI-INFECTION QUINOLONE COMPOUNDS” (priority 2008, published 2011).
